Source: patent US20230192705A1, “SHP2 INHIBITORS, COMPOSITIONS AND USES THEREOF” (Betta Pharmaceuticals Co., Ltd, priority 2020, published 2023)
Read-outs that look alike come from different tables or passages of the source.

Legend:
[1] = test system: lung cancer NCI-H358 cell; test: Cell proliferation assay (CellTiter-Glo), NCI-H358; format: cell-based; details: Homo sapiens, NCI-H358, 96 hrs, CTG, read-out: Compound on NCI-H358 cell IC50
Method: (§1) The effects of the compounds on the proliferation of leukemia MV-4-11 cell and lung cancer NCI-H358 cell were evaluated by in vitro cell test. The assay used in this study was the CELL TITER-GLO (CTG) luminescence assay, which can detect the number of living cells by quantitative determination of ATP. Because ATP is involved in a variety of enzymatic reactions in vivo and is an indicator of the metabolism of living cells, its content can directly reflects the number and state of cells. During the experiment, Celltiter-Glo™ reagent was added to the cell culture medium to measure the luminescence value. The luminescence value was proportional to the amount of ATP, which in turn was positively correlated with the number of living cells. Therefore, ATP content can be used to detect cell viability.
A bottle of NCI-H358 cells in logarithmic growth phase was taken, the cells were digested and resuspend, counted, and then the cell density was adjusted. After that, the cells were inoculated into a 96-well Ultra-Low Attachment Microplate (Corning #3474), 2000 cells were inoculated in each well, and the well plate was placed in an incubator at 37° C. and 5% CO2, and the compounds of the invention were added for conducting.
(§2) An appropriate amount of the compound of the invention was taken for cell treatment, and the final concentration of the compound from high to low was 1000 nM, 333.3 nM, 111.1 nM, 37.04 nM, 12.35 nM, 4.115 nM, 1.372 nm, 0.4572 nM, 0.1524 nM, 0 nM, respectively. The orifice plate was cultured in an incubator at 37° C. and 5% CO2. Only adding medium without adding cell hole was set as blank group. Compound concentration of 0 nM group was zero control group.
NCI-H358 cells were cultured for 96 hrs, then 50 μL CellTiter-Glo® Luminescent cell viability assay solution was added to each well, and the cells were gently shaken for 2 mins, and incubated at room temperature for 10 mins. The cell reaction system was transferred to 96-well Microplate (Corning #3917). The detection values of each well were read on the multi-functional microplate reader.
(§3) The inhibition rate is calculated according to the luminous value reading,
(§4) Inhibition rate %=(1−(administration group value−blank group value)/(control group value−blank group value)*100
(§5) The log (inhibitor) vs. response variable slope of GraphPad Prism was used to fit the dose-response curve and calculate the IC50 of compounds inhibiting cell proliferation.

leukemia MV-4-11 cell = test: Cell proliferation assay (CellTiter-Glo), MV-4-11; format: cell-based; details: Homo sapiens, MV4-11, MV-4-11, 120 hrs, CTG, read-out: Compound on MV-4-11 cell IC50
Method: as §1
A bottle of MV-4-11 cells in logarithmic growth phase was taken, the cells were collected, centrifuged, resuspend, counted, and then inoculated into 96-well Microplate (Corning #3917), with 4000 cells inoculated in each well. The plates were placed in an incubator at 37° C. and 5% CO2 for 24 hrs culture, and the compounds of the invention were added for conducting.
as §2
After cultured for 120 hrs, MV-4-11 cells were added with 50 μL CellTiter-Glo® Luminescent cell viability assay solution in each well, gently shaken for 2 mins, and incubated at room temperature for 10 mins. The detection values of each well were read on the multi-functional microplate reader.
as §3, §4, §5

SHP2 = target: T1, SHP2 (Homo sapiens, UniProt Q06124); test: SHP2 allosteric inhibitor enzyme activity assay (DiFMUP fluorescence); format: biochemical
T1 sequence (Q06124 1-593): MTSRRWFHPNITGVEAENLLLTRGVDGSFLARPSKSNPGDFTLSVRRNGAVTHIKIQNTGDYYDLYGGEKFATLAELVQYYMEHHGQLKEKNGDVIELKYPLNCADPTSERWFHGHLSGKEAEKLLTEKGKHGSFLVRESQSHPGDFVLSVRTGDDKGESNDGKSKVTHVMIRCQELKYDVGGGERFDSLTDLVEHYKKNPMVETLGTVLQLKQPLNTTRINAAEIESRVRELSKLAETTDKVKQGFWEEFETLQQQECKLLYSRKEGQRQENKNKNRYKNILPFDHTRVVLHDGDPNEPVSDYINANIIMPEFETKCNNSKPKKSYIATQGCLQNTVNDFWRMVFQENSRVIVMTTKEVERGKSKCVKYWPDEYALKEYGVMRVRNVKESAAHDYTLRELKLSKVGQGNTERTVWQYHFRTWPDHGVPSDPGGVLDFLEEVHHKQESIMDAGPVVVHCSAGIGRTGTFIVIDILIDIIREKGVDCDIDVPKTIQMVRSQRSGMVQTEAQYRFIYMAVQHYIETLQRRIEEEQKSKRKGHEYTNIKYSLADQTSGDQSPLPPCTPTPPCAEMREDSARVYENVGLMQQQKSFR
How it was run: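 SHP2 activated by 0.5 μM IRS1_pY1172(dPEG8)pY1222 peptide, 0.2 ng enzyme per well, 1 h at room temperature with compound (1 μM top, 3-fold series), then DiFMUP substrate 1 h. Buffer: 60 mM HEPES, 75 mM NaCl, 75 mM KCl, 0.05% BRIJ-35, 1 mM EDTA, 5 mM DTT. Fluorescence ex 340/em 450 nm; IC50 by variable-slope fit.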

SMILES | IC50 ([1]; numeric values) [nM] | IC50 (leukemia MV-4-11 cell; numeric values) [nM] | IC50 (SHP2; numeric values) [nM] | IC50 ([1]; class symbols) [nM] | IC50 (leukemia MV-4-11 cell; class symbols) [nM] | IC50 (SHP2; class symbols) [nM]
N#Cc1ccc2c(c1)CCC=C2c1n[nH]c2nc(N3CCC4(CC3)Cc3ccccc3[C@H]4N)[nH]c(=O)c12 [Example 122, (S)-5-(6-(1-amino-1,3-dihydrospiro[indene-2,4′-piperidin]-1′-yl)-4-oxo-4,5-dihydro-1H-pyrazolo[3,4-d]pyrimidin-3-yl)-7,8-dihydronaphthalene-2-carbonitrile] | 1.1 | 2.1 | 1.1 |  |  | 
N[C@@H]1c2ccccc2CC12CCN(c1nc3[nH]nc(C4=CCOc5c(F)cccc54)c3c(=O)[nH]1)CC2 [Example 124] | 1.6 | 1.7 | 0.48 |  |  | 
CC(=O)c1cccc(C2(c3n[nH]c4nc(N5CCC6(CC5)Cc5ccccc5[C@H]6N)[nH]c(=O)c34)CC2)c1 [Example 223, (S)-3-(1-(3-acetylphenyl)cyclopropyl)-6-(1-amino-1,3-dihydrospiro[indene-2,4′-piperidin]-1′-yl)-1,5-dihydro-4H-pyrazolo[3,4-d]pyrimidin-4-one] | 11 | 2.8 |  |  |  | ≤ 20
N[C@@H]1c2ccccc2CC12CCN(c1nc3[nH]nc(C4=CCOc5cc(F)ccc54)c3c(=O)[nH]1)CC2 [Example 115, (S)-6-(1-amino-1,3-dihydrospiro[indene-2,4′-piperidin]-1′-yl)-3-(7-fluoro-2H-chromen-4-yl)-1,5-dihydro-4H-pyrazolo[3,4-d]pyrimidin-4-one] | 1.2 | 1.4 |  |  |  | ≤ 20
N[C@@H]1c2ccccc2CC12CCN(c1nn3cc(C4CC4)nc3s1)CC2 [Comparative compound 2, reference compound] | 1810 | 454 |  |  |  | 
N[C@@H]1c2ccccc2CC12CCN(c1nc3[nH]nc(C4=CCCCc5ccccc54)c3c(=O)[nH]1)CC2 [Example 125] | 1.1 | 1.9 | 1.6 |  |  | 
N[C@@H]1c2ccccc2CC12CCN(c1nc3[nH]nc(C4=CCCc5nc(Cl)ccc54)c3c(=O)[nH]1)CC2 [Example 139, (S)-6-(1-amino-1,3-dihydrospiro[indene-2,4′-piperidin]-1′-yl)-3-(2-chloro-7,8-dihydroquinolin-5-yl)-1,5-dihydro-4H-pyrazolo[3,4-d]pyrimidin-4-one] | 2 | 2.8 | 1.6 |  |  | 
CC1(C)C=C(c2n[nH]c3nc(N4CCC5(CC4)Cc4ccccc4[C@H]5N)[nH]c(=O)c23)c2ccc(C(F)(F)F)nc2C1 [Example 144, (S)-6-(1-amino-1,3-dihydrospiro[indene-2,4′-piperidin]-1′-yl)-3-(7,7-dimethyl-2-(trifluoromethyl)-7,8-dihydroquinolin-5-yl)-1,5-dihydro-4H-pyrazolo[3,4-d]pyrimidin-4-one] |  |  |  | 20 to 60 | 20 to 60 | ≤ 20
COc1ccccc1C1(c2n[nH]c3nc(N4CCC5(CC4)Cc4ccccc4[C@H]5N)[nH]c(=O)c23)CC1 [Example 17, (S)-6-(1-amino-1,3-dihydrospiro[indene-2,4′-piperidin]-1′-yl)-3-(1-(2-methoxyphenyl)cyclopropyl)-1,5-dihydro-4H-pyrazolo[3,4-d]pyrimidin-4-one] |  |  |  | 20 to 60 | 20 to 60 | ≤ 20

Second part, the molecule after the results:

IC50 ([1]; numeric values) [nM] | IC50 (leukemia MV-4-11 cell; numeric values) [nM] | IC50 (SHP2; numeric values) [nM] | IC50 ([1]; class symbols) [nM] | IC50 (leukemia MV-4-11 cell; class symbols) [nM] | IC50 (SHP2; class symbols) [nM] | SMILES
 |  |  | ≤ 20 | ≤ 20 | ≤ 20 | N[C@@H]1c2ccccc2CC12CCN(c1nc3[nH]nc(C4(c5cccc(Cl)c5)CC4)c3c(=O)[nH]1)CC2 [Example 4, (S)-6-(1-amino-1,3-dihydrospiro[indene-2,4′-piperidin]-1′-yl)-3-(1-(3-chlorophenyl)cyclopropyl)-1,5-dihydro-4H-pyrazolo[3,4-d]pyrimidin-4-one]
 |  | 0.9 | ≤ 20 | ≤ 20 |  | Cc1cccc(C2(c3n[nH]c4nc(N5CCC6(CC5)Cc5ccccc5[C@H]6N)[nH]c(=O)c34)CC2)c1 [Example 10, (S)-6-(1-amino-1,3-dihydrospiro[indene-2,4′-piperidin]-1′-yl)-3-(1-(m-tolyl)cyclopropyl)-1,5-dihydro-4H-pyrazolo[3,4-d]pyrimidin-4-one]
 |  |  | ≤ 20 | ≤ 20 | ≤ 20 | COc1cccc(C2(c3n[nH]c4nc(N5CCC6(CC5)Cc5ccccc5[C@H]6N)[nH]c(=O)c34)CC2)c1 [Example 18, (S)-6-(1-amino-1,3-dihydrospiro[indene-2,4′-piperidin]-1′-yl)-3-(1-(3-methoxyphenyl)cyclopropyl)-1,5-dihydro-4H-pyrazolo[3,4-d]pyrimidin-4-one]
 |  |  | ≤ 20 | ≤ 20 | ≤ 20 | C#Cc1cccc(C2(c3n[nH]c4nc(N5CCC6(CC5)Cc5ccccc5[C@H]6N)[nH]c(=O)c34)CC2)c1 [Example 222, (S)-6-(1-amino-1,3-dihydrospiro[indene-2,4′-piperidin]-1′-yl)-3-(1-(3-ethynylphenyl)cyclopropyl)-1,5-dihydro-4H-pyrazolo[3,4-d]pyrimidin-4-one]
